Ki data for four compounds are collected here from US8598154B2 (Corcept Therapeutics, Inc., priority 2010, dated 2013).

Structures are written as SMILES. A value given as a limit tells only on which side of the number the result lay.

For experiment [1], the target named is T1, Human Recombinant Glucocorticoid Receptor (Homo sapiens, UniProt P04150).
T1 construct: This GR was a full-length steroid hormone receptor likely to be associated with heat-shock and other endogenous proteins; host or cells: baculovirus-infected insect cells
T1 sequence (P04150 1-777): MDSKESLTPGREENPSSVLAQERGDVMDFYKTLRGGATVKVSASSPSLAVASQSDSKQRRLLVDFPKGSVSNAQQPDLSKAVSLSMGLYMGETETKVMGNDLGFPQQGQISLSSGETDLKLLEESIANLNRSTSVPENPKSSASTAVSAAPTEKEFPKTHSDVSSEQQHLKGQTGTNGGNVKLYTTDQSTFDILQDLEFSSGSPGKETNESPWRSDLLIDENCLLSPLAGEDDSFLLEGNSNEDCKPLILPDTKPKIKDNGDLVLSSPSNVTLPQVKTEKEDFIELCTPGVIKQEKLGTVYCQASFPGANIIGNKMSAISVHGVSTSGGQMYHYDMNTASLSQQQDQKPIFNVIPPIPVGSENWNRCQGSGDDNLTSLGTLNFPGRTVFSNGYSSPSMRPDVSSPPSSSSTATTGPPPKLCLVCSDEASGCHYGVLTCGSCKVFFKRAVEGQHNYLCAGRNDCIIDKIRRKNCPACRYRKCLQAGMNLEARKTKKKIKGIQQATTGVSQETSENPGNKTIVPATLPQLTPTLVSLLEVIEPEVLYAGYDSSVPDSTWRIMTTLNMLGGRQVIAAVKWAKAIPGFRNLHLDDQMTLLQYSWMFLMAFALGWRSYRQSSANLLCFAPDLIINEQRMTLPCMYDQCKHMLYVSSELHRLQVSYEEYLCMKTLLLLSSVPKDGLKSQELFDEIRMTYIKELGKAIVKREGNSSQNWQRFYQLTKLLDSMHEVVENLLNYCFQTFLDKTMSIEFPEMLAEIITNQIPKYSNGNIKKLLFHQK
Put plainly: Glucocorticoid receptor binding displacement assay with 3H-dexamethasone. To be noted: displacement of 2.5 nM 3H-dexamethasone; Ki from IC50 by Cheng-Prusoff; read-out: GR Binding Ki.

For experiment [2], the target named is T2, glucocorticoid receptors (GR) in SW1353/MMTV-5 cells (Homo sapiens, UniProt P04150).
T2 construct: contains endogenous glucocorticoid receptors; endogenous in cells; host or cells: SW1353/MMTV-5 (human chondrosarcoma, stably transfected with the pMAMneo-Luc reporter only)
T2 sequence (P04150 1-777): T1 sequence (P04150 1-777)
As to the kind of experiment: GR functional assay using SW1353/MMTV-5 cells (MMTV-luciferase reporter). Format: cell-based. Put shortly: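 Human chondrosarcoma line stably carrying firefly luciferase under an MMTV LTR glucocorticoid-responsive element, with endogenous GR. Cells were plated in 96-well plates and held 24 hrs in geneticin-free medium without CO2.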
In general terms: A reporter such as luciferase makes a cellular process visible.

Usually Ki stands for the equilibrium dissociation constant of an inhibitor or competing ligand from its target. On to `O=C(OCC1CC(O)C1)[C@]12Cc3cnn(-c4ccc(F)cc4)c3C=C1CCN(S(=O)(=O)c1ccc(N3CC[C@@H](F)C3)nc1)C2` (stereo partly drawn) [Example 61, (R)-1-(4-Fluorophenyl)-6-[6-((R)-3-fluoropyrrolidin-1-yl)-pyridine-3-sulfonyl]-1,4,5,6,7,8-hexahydro-1,2,6-triaza-cyclopenta[b]naphthalene-4a-carboxylic acid 3-hydroxy cyclobutylmethyl ester], for which the Ki in experiment [1] was greater than 1 nM; in experiment [2] it was 10 to 50 nM.

As to `O=S(=O)(c1ccc(N2CCOCC2)nc1)N1CCC2=Cc3c(cnn3-c3ccc(F)cc3)C[C@]2(CN2CC[C@H](O)C2)C1` [Example 62, (S)-1-[(S)-1-(4-Fluorophenyl)-6-[6-morpholin-4-yl-pyridine-3-sulfonyl)-1,4,5,6,7,8-hexahydro-1,2,6-triaza-cyclopenta[b]naphthalene-4a-ylmethyl]-pyrrolidin-3-ol], the Ki was greater than 1 nM in experiment [1] and greater than 50 nM in experiment [2].

As for `O=S(=O)(c1ccc(N2CCOCC2)nc1)N1CCC2=Cc3c(cnn3-c3ccc(F)cc3)C[C@]2(CN2CC[C@@H](O)C2)C1` [Example 63, (R)-1-[(S)-1-(4-Fluorophenyl)-6-[6-morpholin-4-yl-pyridine-3-sulfonyl)-1,4,5,6,7,8-hexahydro-1,2,6-triaza-cyclopenta[b]naphthalene-4a-ylmethyl]-pyrrolidin-3-ol], the Ki in experiment [1] was greater than 1 nM; in experiment [2] it was 10 to 50 nM.

As for `COCCOC[C@]12Cc3cnn(-c4ccc(F)cc4)c3C=C1CCN(S(=O)(=O)c1ccc(N3CCOCC3)nc1)C2` [Example 64, (R)-1-(4-Fluoro-phenyl)-4a-(2-methoxy-ethoxymethyl)-6-(6-morpholin-4-yl-pyridine-3-sulfonyl)-4,4a,5,6,7,8-hexahydro-1H-1,2,6-traza-cyclopenta[b]naphthalene], the Ki in experiment [1] is 0.5 to 1 nM; in experiment [2], less than 10 nM.
